Consider one compound from patent US20250282714A1, “COMPOSITIONS FOR AND METHODS OF MODULATING RNA STABILITY” (Duke University, priority 2022, published 2025).

Where “and” joins values, the source holds several entries; their conditions need not be identical. Equal entries are not always repeated.

The test deals with MALAT1 triple helix. The test is described as follows: RNase A enzymatic degradation assay. In kind it is biochemical, human. The settings on record: 5-minute time point, relative to DMSO control. The method, then: The procedure was adapted from a published protocol for exonucleolytic enzymatic degradation assay. (Donlic A, et al. (2020) Nucleic Acids Res. 48(14):7653-7664). The MALAT1 destabilizing small molecules published by Le Grice (Abulwerdi F A, et al. (2019) ACS Chem Biol. 14(2):223-235) and co-workers SM5 and SM16 were purchased from ChemBridge. For a typical 70 μL reaction, […] of MALAT1 triple helix RNA was annealed in the same buffer used for IDA and DSF experiments (20 mM HEPES-KOH, 52 mM KCl, 0.1 mM MgCl2, pH=7.4) by heating at 95° C. for 3 minutes, snap-cooling on ice for 10 minutes, and leaving the solution at room temperature for 1 hr.
RNase A enzyme (ThermoFisher) was diluted to 1.46 nM and incubated with 1 M NaCl for 30-35 minutes to achieve ssRNA selectivity as reported. (Struhl K, et al. (1989) Current Protocols in Molecular Biology. 8(1):3.13.1-3.13.3). Next, the RNA was mixed with 0.2 μM of a GC-rich DNA duplex, […] of small molecule/DMSO and incubated at room temperature for 20 minutes. Following the incubation, […] of RNase A was added, and the reaction was incubated at 37° C. for 1 hour in a thermal cycler with a heated lid (Eppendorf). 4 μL timepoint aliquots were taken at 0, 5, 10, 30, and 60 minutes, 4 μL of 2×RNA loading dye was added to each aliquot (ThermoFischer Scientific), and samples were stored at −80° C. prior to gel analysis. Reactions were analyzed on pre-cast 15% PAGE-Urea gels (Invitrogen) in 1×TBE buffer. Aliquots were thawed from −80° C. storage and heated to 95° C. for 15 minutes prior to gel loading and […] were loaded in each well. Gels were run for 45 minutes at 180 V, stained with Diamond™ Nucleic Acid dye (Promega), and visualized on an iBright 500 (ThermoFisher). DMSO controls were ran with every set of 4 small molecules to ensure consistency of enzyme activity and RNA integrity. Gel band intensity of the MALAT1 triple helix and DNA loading control were quantified using ImageJ software. (Rueden C T, et al. (2017) BMC Bioinformatics. 18(1):529).
To quantify time-dependent endonucleolytic degradation for each sample, the intensity was normalized using Equation (3), and fold-difference was calculated as listed in Equation (4) as previously reported. (Donlic A, et al. (2020) Nucleic Acids Res. 48(14):7653-7664).
where y is normalized RNA area for a specific time point and the sample (tx), TH (triple helix). Area is the raw band intensity for the RNA in the lane corresponding to time point x for that sample, LC (loading control). Area (t0) is the raw band intensity for the DNA in the lane corresponding to the 0 minute time point for the sample, and LC Area (tx) is the raw band intensity for the DNA in the lane corresponding to time point x for that sample.
where y is fold-difference of the exonucleolytic degradation for the specific sample, with normalized areas for its specific time point x and time point 0 calculated as described in Equation (3). Percent RNA degraded was calculated for every time point using Equation (5).
% RNA degraded=(Normalized area (t0)−Normalized area (tx))*100 (Equation 5)
Experimental results shown in FIG. 6C are plotted as three independent replicates and standard deviation between replicates as error bars. Relative fold change between treated condition and DMSO was calculated from Equation (6).
The library was screened using a more biologically relevant in vitro enzymatic degradation assay. Previous work evaluated the effect on triplex degradation of various ionic buffer conditions (Ageeli A A, et al. (2018) Nucleic Acids Res. 47(3):1468-1481) and a sub-set of DPF small molecules (Donlic A, et al. (2020) Nucleic Acids Res. 48(14):7653-7664) using E. coli RNase R exonuclease as it degrades from 3′ to 5′, reporting on the availability of the poly(A) tail normally sequestered in the triplex construct. […]

`N=C(NCc1ccccc1)c1cccc(/N=N/Nc2cccc(C(=N)NCc3ccccc3)c2)c1` [DMZ-M4]: the “increase of the amount of MALAT1 degraded at 5 minutes” value was 2 fold and > 2 fold; the “stabilizer / destabilizer classification by RNase A degradation” value is reported as “destabilizers”.
